Patent publication US4396607A, “Muramyl peptide derivatives and pharmaceutical compositions” (priority 1978, dated 1983)

Experiments:
ovalbumin [1] = assay: Liposome forms: adjuvant character in guinea pigs, ovalbumin in aqueous solution; format: in vivo, Hartley male guinea pigs; conditions: ovalbumin 1 mg in foot pad
Description: The antigen was ovalbumin injected in aqueous solution in the foot pad of Hartley male guinea pigs at a volume of 0.1 ml in each rear paw, at the dose of 1 mg per guinea pig. The adjuvant preparations were injected simultaneously at the indicated doses. After three weeks, the animals received by the dermal route, in a volume of 0.1 ml, 0.025 mg of antigen. The diameter of the cutaneous reactions was measured after 48 hours. The animals were bled and the titers measured.

Listeria monocytogenes = assay: Liposome forms: anti-Listeria activity; format: in vivo; conditions: mice, 1.10^3 Listeria i.v.
Description: The tests were carried out under the conditions of (5), using a dose of Listeria monocytogen, known to cause typically a cellular type infection.
The treatment of the mice and the inoculation were carried out by the intravenous route. The products were injected in the liposome form at the indicated doses. The controls only received isotonic solution.
The dose of Listeria administered was, in all the tests, 1.10^3 cells.
The tests whose results are given below were carried out by varying the interval of time separating the treatment of inoculation from the Listeria monocytogenes (either 1, either 4, or 8 days). The number of surviving mice at the 5th and at the 10th day following inoculation was followed, and the percentage protection determined as for the preceding tests.

[2] = test system: Limulus amoebocyte lysate; assay: Limulus test (endotoxic type activity); conditions: gel formation after 20 minutes at 37° C.
Description: For this purpose, 0.1 ml of the Limulus amoebocyte lysate preparation (marketed by the MALLINCKRODT Company, at St. LOUIS, U.S.A.) was mixed with an equal volume of the tested product at various concentrations in solution in apyrogenic distilled water. The vessels used were also made apyrogenic by dry heating in the oven, at 180° C., for 2 hours.
After incubating the mixture for 20 minutes at 37° C. in tubes, the formation of gel characteristics of the presence of endotoxin was estimated.

BSA = assay: Liposome forms: adjuvant character in mice, BSA as antigen; format: in vivo; conditions: 10 μg
Description: (§1) Groups of 8 Swiss mice aged two months received, by sub-cutaneous injection (SC), 0.5 mg of antigen constituted by bovine serum albumin (BSA) with 0.1 mg or without the tested substance in an isotonic saline solution. This high dose of antigen, because it is situated at the limit of the paralyzing dose with respect to the immunitary response, results, for this reason, in a weak or zero response to the antigen only in the controls: It constitutes therefore a severe criterien to establish the activity of an adjuvant substance. Thirty days later, the mice received, by the same administrative route, a booster containing 0.1 mg of the same antigen.
(§2) The antibody level was determined, six days after the booster, by passive hemagglutination using sheep's red blood corpuscles treated with formalin and covered with the antigen studied according to the method described by A. A. HIRATA and M. W. BRANDISS (J. Immunol., 100, 641-648, 1968).
The series of tests was carried out on mice under the same conditions as indicated in (3)(a), using BSA as antigen.

Klebsiella pneumoniae = assay: Anti-infectious activity with respect to Klebsiella; format: in vivo; conditions: mice, i.v. treatment 24h before 2 × 10^4 bacteria i.m.
Description: The survival of groups of inoculated mice under the above conditions and treated by means of the products according to the invention was followed.
The infecting dose was 2.10^4 Klebsiella; it was administered by the intramuscular route.
The administration of the tested product was carried out by the intravenous route in 0.2 ml of apyrogenic physiological solution, the controls receiving the solution alone. It was carried out 24 hours before the inoculation.
The percentage protection indicated is a difference of the percentages of survivors of the treated group with respect to the control group.

Klebsiella = assay: Liposome forms: anti-Klebsiella activity (intravenous infection); format: in vivo; conditions: mice, i.v. treatment at D - 1, 1.5.10^3 Klebsiella i.v.
Description: Under the previously described conditions, with the exception of the infection produced by the intravenous injection of 1.5.10^3 Klebsiella, the tests are renewed to determine the anti-infectious action. The administrations in the form of solution and of liposome were prepared.

[3] = Liposome forms: toxicity in the adrenalectomized mouse; format: in vivo; conditions: groups of six mice, 100 μg
Description: Pharmacological tests similar to the preceding ones were reproduced with MDP, MDP-L-Ala-eicosyl-ester and MDP-L-Ala-glyceryl-mycolate comparing the effects of administration in liposome form with those obtained for products in solution and with liposomes without muramyl-peptide.
The liposomes were prepared in the manner described above.
The products, the doses administered and their effect on the mortality of groups of six mice are indicated below.

[4] = test system: bovine serum albumin (BSA); assay: Adjuvant character in the aqueous phase (antibody titer by passive hemagglutination); format: in vivo, Swiss mice; conditions: mice, 0.5 mg BSA with 0.1 mg tested substance SC in isotonic saline, booster day 30, titer at the 36th day
Description: as §1, §2
The antibody titer, represented by the maximum serum dilution agglutinating a given amount of sheep corpuscles, reaches a maximum at the 36th day and is established in the following manner: […]

Ovalbumin [5] = assay: Adjuvant character in emulsion (delayed hypersensitivity and antibodies); format: in vivo, Hartley guinea pigs; conditions: guinea pigs, 50 μg in AlF emulsion with 1 mg ovalbumin; for Log2 of the hemagglutinating titer: serum day 21; for HSR (diameter of the delayed hypersensitivity reaction): skin test day 18, read 48 hours later
Description: The tests were carried out on batches of 6 male Hartley guinea pigs of 350 g. The administration was done by intradermal injection into the plantar pad of each of the rear paws. Ovalbumin (constituting the antigen) in the amount of 1 mg is prepared in 0.1 ml of an emulsion of saline isotonic solution, in any oily phase constituted either by the Freund imcomplete adjuvant (FIA), or by the complete adjuvant (FCA) formed by the FIA to which is added 0.1 mg of whole Mycobacterium smegmatis cells. The compound according to the invention was administered in the amount of 0.05 mg added in the emulsion containing the FIA.
Eighteen days after this immunization, possible delayed hypersensitivity reactions to the antigen were sought by injecting by the intradermal route 0.01 mg of ovalbumin in the side of the animals, and 48 hours later, the reaction of the point of injection was observed. The diameter in millimeters of the reaction thus caused was measured.
Twenty-one days after the injection, the animals were bled. […]

[6] = Toxicity (lethal dose 50) by parenteral administration in the adrenalectomised mouse; format: in vivo, mice
Description: The toxicity of the products according to the invention was investigated by parenteral administration in mice. It was observed that the toxic doses were of an order of magnitude very much higher than that of the doses at which these products manifest their activity. Thus the lethal dose 50 of the products according to the invention tested was higher than 5 mg/kg of animal in the adrenalectomised mouse, whose sensitivity to endotoxins is well-known.

ovalbumin [7] = assay: Liposome forms: adjuvant character in Wistar rats, ovalbumin; format: in vivo; conditions: ovalbumin 0.5 mg s.c., 200 μg
Description: The antigen was ovalbumin injected by the subcutaneous route in male Wistar rats in a volume of 0.5 ml at the dose of 0.5 mg. The adjuvant preparations were injected simultaneously, at the dose indicated. At day 20, the animals received a booster of 0.5 mg of antigen alone by the same route. The serums were drawn and tested under the same conditions as in the mouse with the appropriate antigen.

[8] = i.v. treatment at D - 1, dose 100 μg
[9] = i.v. treatment at D - 4, dose 100 μg
[10] = i.v. treatment at D - 8, dose 100 μg

Compound	% of protection (Listeria monocytogenes; [8]) [%]	Number of survivors D + 5 (Listeria monocytogenes; [8])	Number of survivors D + 10 (Listeria monocytogenes; [8])	% of protection (Listeria monocytogenes; [9]) [%]	Number of survivors D + 5 (Listeria monocytogenes; [9])	Number of survivors D + 10 (Listeria monocytogenes; [9])	% of protection (Listeria monocytogenes; [10]) [%]	Number of survivors D + 5 (Listeria monocytogenes; [10])	Number of survivors D + 10 (Listeria monocytogenes; [10])	Log2 of the hemagglutinating titer (BSA)	% of protection (Klebsiella pneumoniae; dose per mouse 10) [%]	Number of survivors at day 3 (Klebsiella pneumoniae; dose per mouse 10)	Number of survivors at day 5 (Klebsiella pneumoniae; dose per mouse 10)	Number of survivors at day 8 (Klebsiella pneumoniae; dose per mouse 10)	% of protection (Klebsiella pneumoniae; dose per mouse 100) [%]	Number of survivors at day 3 (Klebsiella pneumoniae; dose per mouse 100)	Number of survivors at day 5 (Klebsiella pneumoniae; dose per mouse 100)	Number of survivors at day 8 (Klebsiella pneumoniae; dose per mouse 100)	% of protection (Klebsiella; 1 μg) [%]	Number of survivors at D + 3 (Klebsiella; 1 μg)	other results
CCCCCCCCCCCCCCCCCCCCOC(=O)[C@H](C)NC(=O)CC[C@@H](NC(=O)[C@H](C)NC(=O)[C@@H](C)O[C@H]1[C@H](O)[C@@H](CO)OC(O)[C@@H]1NC(C)=O)C(N)=O (stereo partly drawn) [MDP--L--Ala--eicosyl--ester, eicosyl ester of N-acetyl-muramyl-L-alanyl-D-isoglutamine-L-alanine]	0	3	0	0	4	4	0	2	2	3.64 ± 1.15	46	18	14	14	70	23	23	20	25	4	Log2 of the hemagglutinating titer (ovalbumin [1]; 200 μg): 7.33 ± 1.51; HSR (diameter of the cutaneous reactions; in parentheses number of animals showing the reaction) (ovalbumin [1]; 200 μg, read after 48 hours): 0; Limulus test result (concentration of the tested product) [2]: 10 µg/mL; Number of survivors at D + 5 (Klebsiella; 1 μg): 4; Number of survivors at D + 8 (Klebsiella; 1 μg): 4; % of protection (Klebsiella; 10 μg): 31%; Number of survivors at D + 3 (Klebsiella; 10 μg): 13; Number of survivors at D + 5 (Klebsiella; 10 μg): 9; Number of survivors at D + 8 (Klebsiella; 10 μg): 9; % of protection (Klebsiella; 100 μg): 63%; Number of survivors at D + 3 (Klebsiella; 100 μg): 14; Number of survivors at D + 5 (Klebsiella; 100 μg): 14; Number of survivors at D + 8 (Klebsiella; 100 μg): 14; Number of dead mice [3]: 0/6; Log2 hemagglutinating titer [4]: 7.11 ± 2.03; Log2 of the hemagglutinating titer (Ovalbumin [5]): 11.25 ± 1.14; HSR (diameter of the delayed hypersensitivity reaction) (Ovalbumin [5]): 6 ± 4 millimeters; lethal dose 50 [6]: higher than 5 mg/kg
N-acetyl-muramyl-L-alanyl-D-isoglutaminyl-L-alanylglyceryl-mycolate [MDP--L--Ala--glyceryl--mycolate]	0	3	2	0	1	0	0	1	0	2.07 ± 1.13	33	5	4	4	79	23	23	23	0	2	HSR (diameter of the cutaneous reactions) (ovalbumin [1]; dose not given): 0; Log2 of the hemagglutinating titer (ovalbumin [1]; dose not given): 8.64 ± 1.83; Log2 of the hemagglutinating titer (ovalbumin [7]): 7.64 ± 1.90; Number of survivors at D + 5 (Klebsiella; 1 μg): 2; Number of survivors at D + 8 (Klebsiella; 1 μg): 2; % of protection (Klebsiella; 10 μg): 25%; Number of survivors at D + 3 (Klebsiella; 10 μg): 9; Number of survivors at D + 5 (Klebsiella; 10 μg): 8; Number of survivors at D + 8 (Klebsiella; 10 μg): 8; % of protection (Klebsiella; 100 μg): 63%; Number of survivors at D + 3 (Klebsiella; 100 μg): 8; Number of survivors at D + 5 (Klebsiella; 100 μg): 7; Number of survivors at D + 8 (Klebsiella; 100 μg): 7; Number of dead mice [3]: 0/6; Log2 hemagglutinating titer [4]: 7.47 ± 1.17; Log2 of the hemagglutinating titer (Ovalbumin [5]): 12.77 ± 0.83; HSR (diameter of the delayed hypersensitivity reaction) (Ovalbumin [5]): 21± 3 millimeters; lethal dose 50 [6]: higher than 5 mg/kg
